The numbers were not newly measured in patent US6624294B2, “Regioselective synthesis of 2′-O-modified nucleosides” (ISIS Pharmaceuticals, Inc., priority 1999, dated 2003), which cites them from elsewhere.

Molecules are shown by their SMILES.

For the data set the following is noted: hydroxylamino function.
On to `CNOC` [MeONHMe], for which the pKa was 4.75.

`CON(C)C` [MeONHMe2]: the pKa is 3.65.

Turning to `CON` [MeONH2], the pKa is given as 4.2.
